Test results taken from PubChem BioAssay AID1963841 (Molecular Pharmacology Branch, DTP, NCI, 2024).

System: 439559-082-T-J2-PDC spheroid viability
Experiment: Anticancer human tumor 439559-082-T-J2-PDC patient-derived colon adenocarcinoma cell line growth inhibition [POLQ]
Conditions: spheroids with HUVEC and MSC; for IC50: curve of first compound; for viability, T/C: stronger effect = lower value
Description: Multicellular complex tumor spheroid response to Polymerase (POL) inhibitors (novobiocin, ART-558, RP6685) in combination with a variety of drugs and investigational agents in selected tumor cell lines
The POL inhibitors (novobiocin, ART-558, and RP6685) were evaluated both individually and in combination with standard of care and investigational anticancer small molecules within a complex spheroid model of solid tumors. . Complex spheroids include a stromal component modeled by human endothelial cells (HUVEC) and fibroblasts modeled by human mesenchymal stem cells (MSCs). The concentration ranges selected for each drug and investigational agent were based upon clinically achievable concentrations if the clinical Cmax of the agent was known.
Compounds. The drugs and investigational agents: novobiocin (NSC847541), ART-558 (NSC835418), RP-6685 (NSC848927), peposertib (NSC802822), ceralasertib (NSC780249), elimusertib (NSC800525), camonsertib (NSC841442), AZD-1390 (NSC803789), olaparib (NSC753686), talazoparib (NSC767125), rucaparib (NSC756644), sotorasib (NSC818433), MRTX-1133 (NSC836407), SN-38 (NSC673596), topotecan (NSC609699), epotoside (NSC141540), doxorubicin (NSC123127), gemcitabine (NSC613327), 5-fluorouracil (NSC19893), paclitaxel (NSC125973), vemurafenib (NSC761431), MSA-2 (NSC828583), SN-011 (NSC837082), adavosertib (NSC754352), prexasertib (NSC758257), carboplatin (NSC241240) and oxaliplatin (NSC266046), were obtained from the National Cancer Institute (NCI) Developmental Therapeutics Program Chemical Repository (21). The FDA-approved anticancer drug set is available from the Developmental Therapeutics Program at https://dtp.cancer.gov/organization/dscb/obtaining/. […] The stock solutions were prepared in dimethyl sulfoxide (DMSO, Sigma-Aldrich, St. Louis, MO, cat. D2650), except for the platinum compounds which were prepared in saline (Quality Biological, Gaithersburg, MD, cat. 114-055-101), at 800-fold the tested concentration and stored at -70 degrees C prior to their use. All drugs and investigational agents were tested over a range starting from a high concentration at or near the clinical Cmax and decreasing in half-log increments. If the clinical Cmax for an agent had not been determined, the highest concentration tested was 10 microM, except for SN-38, which was tested at a high concentration of 1 microM.
Cell Culture. All cells were maintained in an incubator at 37 degrees C and 5% CO2 with 95% humidity. The PDC lines were cultured according to standard operating procedures established by the NCI PDMR (https://pdmr.cancer.gov). Table 3 of the manuscript, lists the cell lines along with the number of the three cell types plated to form the mct-spheroids and media for tumor cell growth. After thawing, all PDC lines, except 997537-175-T-J1-PDC and 415267-285-R-J2-PDC, were cultured in Matrigel-coated flasks prepared with a working solution of 1X Ham's F-12 nutrient mix, without supplementation (Thermo Fisher Scientific, cat. 11765054), 100 U/mL penicillin-streptomycin (Thermo Fisher Scientific, cat. 15140122), and 2.5% Matrigel (Corning Inc., Corning, NY, cat. 354248) for the first three passages. The two PDC lines 997537-175-T-J1-PDC and 415267-285-R-J2-PDC were cultured on uncoated flasks. The 857933-349-R-J2-PDC line was cultured in 6C/Colon 1B media containing advanced DMEM/F-12 (Thermo Fisher Scientific, cat. 12634028), 10 mM HEPES (Thermo Fisher Scientific, cat. 15630080), 1X GlutaMAX supplement (Thermo Fisher Scientific, cat. 35050061), 0.1 mg/mL primocin (InvivoGen, San Diego, CA, cat. ant-pm-2), 10% defined fetal bovine serum, heat inactivated (HyClone Laboratories Inc., Logan, UT, cat. SH30070.03HI), 50% L-WRN conditioned media (ATCC, cat. CRL-3276), 1.25 mM N-Acetyl-L-cysteine (Sigma-Aldrich, cat. A9165), 10 mM nicotinamide (Sigma-Aldrich, cat. N0636), 1X B-27 supplement (Thermo Fisher Scientific, cat. 17504044), 1X N-2 supplement (Thermo Fisher Scientific, cat. […]

[1] = second compound 0.0316 µM, first compound 0.0316 µM
[2] = second compound 0.0316 µM, first compound 0.1 µM
[3] = second compound 0.0316 µM, first compound 0.316 µM
[4] = second compound 0.0316 µM, first compound 1 µM
[5] = second compound 0.1 µM, first compound 0.0316 µM
[6] = second compound 0.1 µM, first compound 0.1 µM
[7] = second compound 0.1 µM, first compound 0.316 µM
[8] = second compound 0.1 µM, first compound 1 µM
[9] = second compound 0.316 µM, first compound 0.0316 µM
[10] = second compound 0.316 µM, first compound 0.1 µM
[11] = second compound 0.316 µM, first compound 0.316 µM
[12] = second compound 0.316 µM, first compound 1 µM
[13] = second compound 1 µM, first compound 0.0316 µM
[14] = second compound 1 µM, first compound 0.1 µM
[15] = second compound 1 µM, first compound 0.316 µM
[16] = second compound 1 µM, first compound 1 µM
[17] = second compound 3.16 µM, first compound 0.0316 µM
[18] = second compound 3.16 µM, first compound 0.1 µM
[19] = second compound 3.16 µM, first compound 0.316 µM
[20] = second compound 3.16 µM, first compound 1 µM
[21] = second compound 10 µM, first compound 0.0316 µM
[22] = second compound 10 µM, first compound 0.1 µM
[23] = second compound 10 µM, first compound 0.316 µM
[24] = second compound 10 µM, first compound 1 µM
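Further: spheroids exposed to compounds for seven days before readout.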
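Wherever viability, T/C is given: 100% = DMSO vehicle control viability.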

## COc1cccc(OCCCN)c1-c1cc(Nc2cnc(C#N)cn2)n[nH]1 + Nc1ccc(C#CCN(C(=O)Cc2ncc(C(F)(F)F)cc2C(F)(F)F)c2ccc(F)cc2)nn1
Second compound 0.0316 µM
  IC50: 336 nM
Second compound 0.1 µM
  IC50: 293 nM
Second compound 0.316 µM
  IC50: 320 nM
Second compound 1 µM
  IC50: 290 nM
Second compound 3.16 µM
  IC50: 223 nM
Second compound 10 µM
  IC50: 70.2 nM
Second compound 0.0316 µM, first compound 0.00316 µM
  viability, T/C: 105%
Second compound 0.0316 µM, first compound 0.01 µM
  viability, T/C: 95.1%
[1]
  viability, T/C: 82.2%
[2]
  viability, T/C: 68.4%
[3]
  viability, T/C: 58.2%
[4]
  viability, T/C: 23.1%
Second compound 0.1 µM, first compound 0.00316 µM
  viability, T/C: 104%
Second compound 0.1 µM, first compound 0.01 µM
  viability, T/C: 99.3%
[5]
  viability, T/C: 79.9%
[6]
  viability, T/C: 66.7%
[7]
  viability, T/C: 53%
[8]
  viability, T/C: 22.8%
Second compound 0.316 µM, first compound 0.00316 µM
  viability, T/C: 101%
Second compound 0.316 µM, first compound 0.01 µM
  viability, T/C: 97.6%
[9]
  viability, T/C: 85.4%
[10]
  viability, T/C: 69%
[11]
  viability, T/C: 51.6%
[12]
  viability, T/C: 24.8%
Second compound 1 µM, first compound 0.00316 µM
  viability, T/C: 106%
Second compound 1 µM, first compound 0.01 µM
  viability, T/C: 105%
[13]
  viability, T/C: 76.8%
[14]
  viability, T/C: 70.6%
[15]
  viability, T/C: 50.6%
[16]
  viability, T/C: 22.4%
Second compound 3.16 µM, first compound 0.00316 µM
  viability, T/C: 106%
Second compound 3.16 µM, first compound 0.01 µM
  viability, T/C: 95.6%
[17]
  viability, T/C: 83.2%
[18]
  viability, T/C: 67.7%
[19]
  viability, T/C: 41.6%
[20]
  viability, T/C: 20.4%
Second compound 10 µM, first compound 0.00316 µM
  viability, T/C: 107%
Second compound 10 µM, first compound 0.01 µM
  viability, T/C: 96%
[21]
  viability, T/C: 69.3%
[22]
  viability, T/C: 42.4%
[23]
  viability, T/C: 23.8%
[24]
  viability, T/C: 20.7%

## C=CC(=O)N1CCN(c2nc(=O)n(-c3c(C)ccnc3C(C)C)c3nc(-c4c(O)cccc4F)c(F)cc23)C(C)C1 (centres undefined) + Nc1ccc(C#CCN(C(=O)Cc2ncc(C(F)(F)F)cc2C(F)(F)F)c2ccc(F)cc2)nn1
Second compound 0.0316 µM
  IC50: > 10000 nM
Second compound 0.1 µM
  IC50: > 10000 nM
Second compound 0.316 µM
  IC50: > 10000 nM
Second compound 1 µM
  IC50: > 10000 nM
Second compound 3.16 µM
  IC50: > 10000 nM
Second compound 10 µM
  IC50: > 10000 nM
[1]
  viability, T/C: 105%
[2]
  viability, T/C: 100%
[3]
  viability, T/C: 91.2%
[4]
  viability, T/C: 94.5%
Second compound 0.0316 µM, first compound 3.16 µM
  viability, T/C: 123%
Second compound 0.0316 µM, first compound 10 µM
  viability, T/C: 104%
[5]
  viability, T/C: 109%
[6]
  viability, T/C: 88.9%
[7]
  viability, T/C: 83.6%
[8]
  viability, T/C: 98.1%
Second compound 0.1 µM, first compound 3.16 µM
  viability, T/C: 115%
Second compound 0.1 µM, first compound 10 µM
  viability, T/C: 99.2%
[9]
  viability, T/C: 97.4%
[10]
  viability, T/C: 95.7%
[11]
  viability, T/C: 99.1%
[12]
  viability, T/C: 99.1%
Second compound 0.316 µM, first compound 3.16 µM
  viability, T/C: 131%
Second compound 0.316 µM, first compound 10 µM
  viability, T/C: 100%
[13]
  viability, T/C: 91.6%
[14]
  viability, T/C: 97.1%
[15]
  viability, T/C: 86.3%
[16]
  viability, T/C: 100%
Second compound 1 µM, first compound 3.16 µM
  viability, T/C: 123%
Second compound 1 µM, first compound 10 µM
  viability, T/C: 99.1%
[17]
  viability, T/C: 100%
[18]
  viability, T/C: 90.3%
[19]
  viability, T/C: 99.5%
[20]
  viability, T/C: 98.7%
Second compound 3.16 µM, first compound 3.16 µM
  viability, T/C: 101%
Second compound 3.16 µM, first compound 10 µM
  viability, T/C: 89.5%
[21]
  viability, T/C: 99.1%
[22]
  viability, T/C: 96.1%
[23]
  viability, T/C: 87.2%
[24]
  viability, T/C: 94.7%
Second compound 10 µM, first compound 3.16 µM
  viability, T/C: 116%
Second compound 10 µM, first compound 10 µM
  viability, T/C: 95.3%
